From patent US20250002489A1, “BIFUNCTIONAL COMPOUNDS FOR DEGRADING ITK VIA UBIQUITIN PROTEOSOME PATHWAY” (NURIX THERAPEUTICS, INC., priority 2021, published 2025)

Target: T1, ITK (Jurkat or Molt4 cells) (Homo sapiens, UniProt Q08881)
T1 construct: either human Jurkat (Clone E6-1 ATCC TIB-152) or Motl4 (ATCC CRL-1552), were plated; endogenous in cells; host or cells: Jurkat Clone E6-1 (ATCC TIB-152) or Molt4 (ATCC CRL-1552)
T1 sequence (Q08881 1-620): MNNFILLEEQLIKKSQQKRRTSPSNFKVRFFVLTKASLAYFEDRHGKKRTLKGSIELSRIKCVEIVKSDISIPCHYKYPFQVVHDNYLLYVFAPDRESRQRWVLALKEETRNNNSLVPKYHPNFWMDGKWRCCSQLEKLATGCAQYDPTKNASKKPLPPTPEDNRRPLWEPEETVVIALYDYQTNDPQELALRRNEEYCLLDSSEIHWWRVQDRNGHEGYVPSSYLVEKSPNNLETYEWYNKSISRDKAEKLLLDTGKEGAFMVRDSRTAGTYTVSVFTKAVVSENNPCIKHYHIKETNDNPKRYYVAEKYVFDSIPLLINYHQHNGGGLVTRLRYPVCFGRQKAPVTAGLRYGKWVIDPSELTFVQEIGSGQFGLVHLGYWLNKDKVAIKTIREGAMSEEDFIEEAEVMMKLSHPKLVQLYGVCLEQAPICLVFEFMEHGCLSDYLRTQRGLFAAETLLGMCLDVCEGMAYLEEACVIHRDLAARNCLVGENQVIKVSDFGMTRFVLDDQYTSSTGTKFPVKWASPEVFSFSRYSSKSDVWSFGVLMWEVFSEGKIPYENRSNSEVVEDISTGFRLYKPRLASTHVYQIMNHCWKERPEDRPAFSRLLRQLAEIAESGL
Experiment: ITK Degradation MSD (Meso Scale Discovery) Assay
Type: cell-based
Conditions: 4 or 6 hrs incubation; for DC50: best fit IC50 used as DC50
Procedure: Compound dilution series (7-point, 5-fold dilutions in DMSO, rows B—H with replicate in Column 1/2, 3/4, 5/6, 7, and 8 at 2000× the final required concentrations were prepared in 96-well plate (Falcon, cat. no. 353077). Row A, Column 1-8 were control DMSO. The 2000× solutions ranged from 2 mM to 128 nM (final assay concentration range 1 μM to […]). The 2000×solutions were added to cells in 10 μL volume, for a final DMSO concentration of 0.5% and final assay compound concentration of 1×. For the cells, either human Jurkat (Clone E6-1 ATCC TIB-152) or Motl4 (ATCC CRL-1552), were plated at 1×10^6 cells/mL, 100 μL/well ([…]) in complete RPMI (10% FBS, 1% L-glutamine). The cells were incubated with compounds 26-29 for 4 or 6 hrs at 32° C./6% CO2.
Following incubation, plates were centrifuged at 1200 rpm for 5 min. Supernatant was removed and 50 μL of cell lysis buffer (MSD Tris lysis buffer (R60TX), complete Mini EDTA-free protease inhibitor (Sigma 11836170001), Protease Inhibitor Cocktail (Sigma, P2714), Phosphatase Inhibitor Cocktail 2 and 3 (Sigma, P5726 and P0044), Benzonase (Sigma, E1014)) was added to each well. Plate was sealed and shook at 4° C. for 30 min. Plate was centrifuged and 45 μL was removed for plate assay.
Assay plate preparation: Meso Scale Discovery (MSD) multi-array sm spot 96-well plates (Goat anti-Rabbit L^45-RA), were blocked with 3% BSA blocking buffer (3% Bovine Serum Albumin (Sigma A3059)+TBS 0.2% Tween-20) for one hour with gentle rocking at room temperature. Plate was then washed with 200 μL of 1×TBST (TBS 0.2% Tween-20) three times. After the last wash, all liquid was removed and 50 μL per well of capture antibody (abcam ITK Y402-ab32507) was added to plate at a 1:1000 dilution in blocking buffer (see above). Plate was sealed and rocked at room temperature for 2 hrs. Plate was then washed three times with 200 μL of 1×TBST. After the last wash, all liquid was removed and 45 μL of cell lysate (from above) was added to plate. Plate was sealed and rocked overnight at 4° C. The next day, cell lysates were removed, and assay plate was washed three times with 200 μL of 1×TBST. After the last wash, liquid was removed and detection antibody (CST ITK (2F12) #2380) was added at 50 μL per well at a dilution of 1:1000 in blocking buffer. Plate was sealed and rocked at room temperature for 2 hrs. Plate was washed three times with 200 μL of 1×TBST. After the last wash, all liquid was removed, MSD […] sulfo tag (R32AC-1) was diluted to 1:1000 in blocking buffer. 50 μL was added to each well on the plate. Plate was sealed and incubated at room temperature for one hour. Plate was washed three times with 200 μL of 1×TBST. After last wash, all liquid was removed and 150 μL of 1×MSD Read Buffer T (R92PC) was then added to each well for ECL read out.
For reading ECL signal, plate was read on a Meso Scale Discovery (MSD) MESO Sector S 600 plate reader. Percent ITK was then calculated as described below.
Percent ITK remaining per sample was calculated as follows: […]
Using Graphpad Prism, % ITK remaining values were plotted as a function of compound concentration. To determine DC50 and Dmax values, resulting curves were fit to the Prism curve-fitting equation “log(inhibitor) vs response−Variable slope (four parameters)” (reported best fit value IC50 used as DC50).

Row | Structure (SMILES) | DC50 [nM] | Dmax [%]
1 | CN[C@@H](C)C(=O)N[C@H](C(=O)N1CCC[C@H]1c1nc(C(=O)c2cccc(OCCOCCN3CC([C@@H](c4ccccc4)n4cc(NC(=O)c5n[nH]c6c5C[C@@H]5C(F)(F)[C@]5(C)C6)cn4)C3)c2)cs1)C1CCCCC1 [Compound 11, (4aS,5aR)—N-(1-((S)-(1-(2-(2-(3-(2-((S)-1-((S)-2-cyclohexyl-2-((S)-2-(methylamino)propanamido)acetyl)pyrrolidin-2-yl)thiazole-4-carbonyl)phenoxy)ethoxy)ethyl)azetidin-3-yl)(phenyl)methyl)-1H-pyrazol-4-yl)-5,5-difluoro-5a-methyl-1,4,4a,5,5a,6-hexahydrocyclopropa[f]indazole-3-carboxamide] | 10.7 | 
2 | Cc1ncsc1-c1ccc(CNC(=O)[C@@H]2C[C@@H](O)CN2C(=O)[C@@H](NC(=O)CCOCCC(=O)N2CC([C@@H](c3ccccc3)n3cc(NC(=O)c4n[nH]c5c4C[C@@H]4C(F)(F)[C@]4(C)C5)cn3)C2)C(C)(C)C)cc1 [Compound 16, (4aS,5aR)-5,5-difluoro-N-(1-((S)-(1-(3-(3-(((S)-1-((2S,4R)-4-hydroxy-2-((4-(4-methylthiazol-5-yl)benzyl)carbamoyl)pyrrolidin-1-yl)-3,3-dimethyl-1-oxobutan-2-yl)amino)-3-oxopropoxy)propanoyl)azetidin-3-yl)(phenyl)methyl)-1H-pyrazol-4-yl)-5a-methyl-1,4,4a,5,5a,6-hexahydrocyclopropafindazole-3-carboxamide] | 479 | 
3 | Cc1ncsc1-c1ccc(CNC(=O)[C@@H]2C[C@@H](O)CN2C(=O)[C@@H](NC(=O)C2(F)CC2)C(C)(C)C)c(OCCCCCCCC(=O)N2CC([C@@H](c3ccccc3)n3cc(NC(=O)c4n[nH]c5c4C[C@@H]4C(F)(F)[C@]4(C)C5)cn3)C2)c1 [Compound 20, (4aS,5aR)-5,5-difluoro-N-(1-((S)-(1-(8-(2-(((2S,4R)-1-((S)-2-(1-fluorocyclopropane-1-carboxamido)-3,3-dimethylbutanoyl)-4-hydroxypyrrolidine-2-carboxamido)methyl)-5-(4-methylthiazol-5-yl)phenoxy)octanoyl)azetidin-3-yl)(phenyl)methyl)-1H-pyrazol-4-yl)-5a-methyl-1,4,4a,5,5a,6-hexahydrocyclopropa[f]indazole-3-carboxamide] | 1.27 | 94.6
4 | Cc1ncsc1-c1ccc([C@H](C)NC(=O)[C@@H]2C[C@@H](O)CN2C(=O)[C@@H](NC(=O)c2ncc(N3CCC(C(=O)N4CC([C@@H](c5ccccc5)n5cc(NC(=O)c6n[nH]c7c6C[C@@H]6C(F)(F)[C@]6(C)C7)cn5)C4)CC3)cn2)C(C)(C)C)cc1 [Compound 21, (4aS,5aR)-5,5-difluoro-N-(1-((S)-(1-(1-(2-(((S)-1-((2S,4R)-4-hydroxy-2-(((S)-1-(4-(4-methylthiazol-5-yl)phenyl)ethyl)carbamoyl)pyrrolidin-1-yl)-3,3-dimethyl-1-oxobutan-2-yl)carbamoyl)pyrimidin-5-yl)piperidine-4-carbonyl)azetidin-3-yl)(phenyl)methyl)-1H-pyrazol-4-yl)-5a-methyl-1,4,4a,5,5a,6-hexahydrocyclopropa[f]indazole-3-carboxamide] | 64.7 | 95

The remaining molecules from weak to strong by DC50, led by results:

Row | DC50 [nM] | Dmax [%] | Structure (SMILES)
5 | 134 |  | Cc1ncsc1-c1ccc(CNC(=O)[C@@H]2C[C@@H](O)CN2C(=O)[C@@H](NC(=O)CCOCCOCCOCCOCCOCCOCCC(=O)N2CC([C@@H](c3ccccc3)n3cc(NC(=O)c4n[nH]c5c4C[C@@H]4C(F)(F)[C@]4(C)C5)cn3)C2)C(C)(C)C)cc1 [Compound 14, (4aS,5aR)-5,5-difluoro-N-(1-((S)-(1-((S)-24-((2S,4R)-4-hydroxy-2-((4-(4-methylthiazol-5-yl)benzyl)carbamoyl)pyrrolidine-1-carbonyl)-25,25-dimethyl-22-oxo-4,7,10,13,16,19-hexaoxa-23-azahexacosanoyl)azetidin-3-yl)(phenyl)methyl)-1H-pyrazol-4-yl)-5a-methyl-1,4,4a,5,5a,6-hexahydrocyclopropa[f]indazole-3-carboxamide]
6 | 114 |  | Cc1ncsc1-c1ccc(CNC(=O)[C@@H]2C[C@@H](O)CN2C(=O)[C@@H](NC(=O)CCOCCOCCOCCOCCN2CC([C@@H](c3ccccc3)n3cc(NC(=O)c4n[nH]c5c4C[C@@H]4C(F)(F)[C@]4(C)C5)cn3)C2)C(C)(C)C)cc1 [Compound 12, (4aS,5aR)-5,5-difluoro-N-(1-((S)-(1-((S)-17-((2S,4R)-4-hydroxy-2-((4-(4-methylthiazol-5-yl)benzyl)carbamoyl)pyrrolidine-1-carbonyl)-18,18-dimethyl-15-oxo-3,6,9,12-tetraoxa-16-azanonadecyl)azetidin-3-yl)(phenyl)methyl)-1H-pyrazol-4-yl)-5a-methyl-1,4,4a,5,5a,6-hexahydrocyclopropa[f]indazole-3-carboxamide]
7 | 54.7 |  | Cc1ncsc1-c1ccc(CNC(=O)[C@@H]2C[C@@H](O)CN2C(=O)[C@@H](NC(=O)CCOCCOCCOCCC(=O)N2CC([C@@H](c3ccccc3)n3cc(NC(=O)c4n[nH]c5c4C[C@@H]4C(F)(F)[C@]4(C)C5)cn3)C2)C(C)(C)C)cc1 [Compound 15, (4aS,5aR)-5,5-difluoro-N-(1-((S)-(1-((S)-15-((2S,4R)-4-hydroxy-2-((4-(4-methylthiazol-5-yl)benzyl)carbamoyl)pyrrolidine-1-carbonyl)-16,16-dimethyl-13-oxo-4,7,10-trioxa-14-azaheptadecanoyl)azetidin-3-yl)(phenyl)methyl)-1H-pyrazol-4-yl)-5a-methyl-1,4,4a,5,5a,6-hexahydrocyclopropa[f]indazole-3-carboxamide]
8 | 2.6 | 95.9 | Cc1ncsc1-c1ccc(CNC(=O)[C@@H]2C[C@@H](O)CN2C(=O)[C@@H](NC(=O)C2(F)CC2)C(C)(C)C)c(OCCOCCOCCOCCC(=O)N2CC([C@@H](c3ccccc3)n3cc(NC(=O)c4n[nH]c5c4C[C@@H]4C(F)(F)[C@]4(C)C5)cn3)C2)c1 [Compound 19, (4aS,5aR)-5,5-difluoro-N-(1-((S)-(1-(3-(2-(2-(2-(2-(((2S,4R)-1-((S)-2-(1-fluorocyclopropane-1-carboxamido)-3,3-dimethylbutanoyl)-4-hydroxypyrrolidine-2-carboxamido)methyl)-5-(4-methylthiazol-5-yl)phenoxy)ethoxy)ethoxy)ethoxy)propanoyl)azetidin-3-yl)(phenyl)methyl)-1H-pyrazol-4-yl)-5a-methyl-1,4,4a,5,5a,6-hexahydrocyclopropa[f]indazole-3-carboxamide]
